This is an account of results in patent publication US7367933B2, “Screening of chemical compounds purified from biological sources” (Sequoia Sciences, Inc., priority 1999, dated 2008).

One test relates to B16 melanoma. As to conditions: previously reported for compounds from stem bark of Taxus baccata; cited from earlier work.
Test [1] relates to MCF7 breast cancer, NCI-H460 lung cancer, and SF-268 CNS cancer. The experiment in a line: NCI in vitro 3-cell-line anticancer panel (overall statement). Format: cell-based. As to conditions: NCI 3-cell-line panel. On the procedure:
(§1) In vitro cytotoxicity tests were conducted at the NCI using an in vitro 3-cell-line panel consisting of MCF7 breast cancer, NCI-H460 lung cancer, and SF-268 CNS cancer. Each cell line was inoculated and incubated in microtiter plates. After 24 hours test samples were added to a final assay concentration of 2 μg/mL and the culture was incubated for 48 hours. Results for each test sample were reported as the percentage of growth of the treated cells when compared to untreated controls. Compounds which reduced the growth of any one of the cell lines […] against standard were considered to be active.

A further test deals with NCI-H460 lung cancer. The experiment in a line: NCI in vitro cytotoxicity test, 3-cell-line panel: NCI-H460. It is filed as cell-based. As to conditions: 2 μg/mL, 48 hours incubation; less than 32% = active. As for the experimental part: as §1
The subject of the next test is MCF7 breast cancer. The test can be described thus: NCI in vitro cytotoxicity test, 3-cell-line panel: MCF7. As to conditions: 2 μg/mL, 48 hours incubation; less than 32% = active. Format: cell-based. As for the experimental part:
as §1

The subject of another test is SF-268 CNS cancer. The test can be described thus: NCI in vitro cytotoxicity test, 3-cell-line panel: SF-268. As to conditions: 2 μg/mL, 48 hours incubation; less than 32% = active. Format: cell-based. As for the experimental part: as §1

As for `CCCCCC(=O)N[C@@H](c1ccccc1)[C@@H](O)C(=O)O[C@H]1C[C@@]2(O)[C@@H](OC(=O)c3ccccc3)[C@@H]3[C@]4(OC(C)=O)CO[C@@H]4C[C@H](O[C@@H]4OC[C@@H](O)[C@H](O)[C@H]4O)[C@@]3(C)C(=O)[C@H](O)C(=C1C)C2(C)C` [7-(β-xylosyl)-10-deacetyltaxol C], the “activity against B16 melanoma (in words)” value in the test with B16 melanoma is recorded as “potent activity”. In addition, the “anticancer activity in the 3-cell-line anticancer panel (in words)” value (“anticancer activity” for short) in test [1] was “active”.

With `CCCCCC(=O)N[C@@H](c1ccccc1)[C@@H](O)C(=O)O[C@H]1C[C@@]2(O)[C@@H](OC(=O)c3ccccc3)[C@@H]3[C@]4(OC(C)=O)CO[C@@H]4C[C@H](O[C@@H]4OC[C@@H](O)[C@H](O)[C@H]4O)[C@@]3(C)C(=O)[C@H](OC(C)=O)C(=C1C)C2(C)C` [7-(β-xylosyl)-taxol C], the “activity against B16 melanoma (in words)” value in the test on B16 melanoma is “potent activity”. In test [1], the “anticancer activity” value is recorded as “active”.

Regarding `CC(=O)O[C@H]1C(=O)[C@]2(C)[C@@H](O[C@@H]3OC[C@@H](O)[C@H](O)[C@H]3O)C[C@H]3OC[C@@]3(OC(C)=O)[C@H]2[C@H](OC(=O)c2ccccc2)[C@]2(O)C[C@H](OC(=O)[C@H](O)[C@@H](NC(=O)c3ccccc3)c3ccccc3)C(C)=C1C2(C)C` [7-(β-xylosyl)-taxol], in the test on B16 melanoma, the “activity against B16 melanoma (in words)” value is recorded as “potent activity”. Also, the “anticancer activity” value in test [1] is “active”.

Turning to `C/C=C(\C)C(=O)N[C@@H](c1ccccc1)[C@@H](O)C(=O)O[C@H]1C[C@@]2(O)[C@@H](OC(=O)c3ccccc3)[C@@H]3[C@]4(OC(C)=O)CO[C@@H]4C[C@H](O)[C@@]3(C)C(=O)[C@H](OC(C)=O)C(=C1C)C2(C)C` [Cephalomanine], in the test on NCI-H460 lung cancer, the “H-460 Lung cancer, percentage of growth (One Dose Primary Anticancer Assay)” value (from here on “H-460 Lung cancer, percentage of growth”) was determined as 19%. In the test on MCF7 breast cancer, the “MCF-7 Breast cancer, percentage of growth (One Dose Primary Anticancer Assay)” value (“MCF-7 Breast cancer, percentage” below) was found to be 15%. In addition, in the test with SF-268 CNS cancer, the “SF-268 CNS cancer, percentage of growth (One Dose Primary Anticancer Assay)” value (shortened to “SF-268 CNS cancer, percentage of growth”) came to 30%.

As to `CC(=O)O[C@H]1C(=O)[C@@]2(C)[C@H]([C@H](OC(=O)c3ccccc3)[C@]3(O)C[C@H](OC(=O)[C@H](O)[C@@H](NC(=O)c4ccccc4)c4ccccc4)C(C)=C1C3(C)C)[C@]1(OC(C)=O)CO[C@@H]1C[C@@H]2O` [Paclitaxel], the “H-460 Lung cancer, percentage of growth” value in the test with NCI-H460 lung cancer came to 13%. The “MCF-7 Breast cancer, percentage” value in the test with MCF7 breast cancer worked out at 23%. In the test on SF-268 CNS cancer, the “SF-268 CNS cancer, percentage of growth” value is 30%.

On to `CC(=O)O[C@H]1C(=O)[C@@]2(C)[C@H]([C@H](OC(=O)c3ccccc3)[C@]3(O)C[C@H](OC(=O)[C@H](O)[C@@H](NC(=O)c4ccccc4)c4ccccc4)C(C)=C1C3(C)C)[C@]1(OC(C)=O)CO[C@@H]1C[C@@H]2O` [TX003-17, paclitaxel], for which, in the test with NCI-H460 lung cancer, the “H-460 Lung cancer, percentage of growth” value was 30%. The “anticancer activity” value in test [1] was “exhibited activity in all three cell lines”. In addition, in the test on MCF7 breast cancer, the “MCF-7 Breast cancer, percentage” value is on record as 21%. In the test on SF-268 CNS cancer, the “SF-268 CNS cancer, percentage of growth” value is recorded as 29%.
